Measurements as given in patent US7253177B2, “Synthesis and antimalarial activity of pyrrolo[3,2-f]quinazoline-1,3-diamine derivatives” (United States of America as Represented by the Secretary of …, priority 2004, dated 2007).
Converted amounts (≈) assume the structure as drawn. Where two headings read alike, the source gives them in different places.

Experiments:
[1] = system: Plasmodium falciparum W-2 clone (CDC Indochina III); assay: In vitro antimalarial study, [3H]hypoxanthine uptake, W-2 clone; format: cell-based
Experimental: (§1) B. Antimalarial Activities: (a). In Vitro Antimalarial Studies. The in vitro assays were conducted by using a modification of the semiautomated microdilution technique of Desjardins et al and Chulay et al.. Four P. falciparum malaria parasite clones, from CDC Indochina III (W-2), CDC Sierra Leone I (D-6), Southeast Asia Isolates (TM91C235) and RCS (Isolates from Brazil) were utilized in susceptibility testing. They were derived by direct visualization and micromanipulation from patient isolates. The W-2 clone is susceptible to mefloquine but resistant to chloroquine, sulfadoxine, pyrimethamine, and quinine, whereas the D-6 clone is naturally resistant to mefloquine but susceptible to chloroquine, sulfadoxine, pyrimethamine and quinine. Test compounds were initially dissolved in DMSO and diluted 400 fold in RPMI 1640 culture medium supplemented with 25 mM Hepes, 32 mM NaHCO3 and 10% Albumax I (Gibco BRL, Grand Island, N.Y.). These solutions were subsequently serially diluted two-fold with a Biomek 1000 (Beckman, Fullerton, Calif.) over 11 different concentrations. The parasites were exposed to serial dilutions of each compound for 48 hrs and incubated at 37° C. with 5% O2, 5% CO2 and 90% N2 prior to the addition of [^3H]hypoxanthine. After a further incubation of 18 hrs, parasite DNA was harvested from each microtiter well using Packard Filtermate 196 Harvester (Meriden, Conn.) onto glass filters. Uptake of [^3H]hypoxanthine was measured with a Packard Topcount Scintillation. Concentration-response data were analyzed by a non-linear regression logistic dose response model and the IC50 values (50% inhibitory concentrations) for each compound were calculated. (Table 3). (b). In Vivo Antimalarial Studies against P. berghei in mice: The in vivo efficacy of the artelinic acid analogs were determined in a modified Thompson test. This test measures the survivability of mice and parasitemia clearance following administration of drug on days 3-5 post infection. In brief, 5×10^6 P. berghei-infected erythrocytes (KBG-173 strain) were inoculated intraperitoneally to female mice that weighed 24-30 g. By day three post-infection, parasitemia ranged from 1.0-3.7%. Each drug, dissolved in 5% sodium bicarbonate, was administered PO twice daily from day 3-5 post-infection. Total doses for each drug ranged from 1.5-384 mg/kg with 8 mice included in each dosage group. The percent suppression of parasitemia in the treated mice compared to the untreated controls was determined for each test compound; the SD-50 (fifty percent suppression dose) and SD-90 were determined from a non-linear regression logistic dose response fit at day 6 parasitemia data. Survival of mice to day 60 post-infection was considered a cure (C). Compounds were considered active (A) when the survival time of the treated mice was greater than twice the control mice, i.e., 12-14 day (Table 4-5). (c). Sporozoite Induced Test Each compound is ground with a mortar & pestle and suspended in 0.5% hydroxyethylcellulose—0.1% Tween 80 for compounds to be administered PO and those given SC are suspended in peanut oil. Each compound is prepared at 3 different dose levels as requested by WRAIR. Compounds are administered either PO or SC to mice once 4 hr before inoculation of sporozoites. Four-week-old male CD-1 mice, purchased from Charles River and weighing 16-17 g, are placed 5 per cage and allowed to acclimate for 4 days before being treated and then inoculated with sporozoites. They are fed food and water ad-lib and maintained at 76° F. with 12 hr light and 12 hr darkness. The cages and water bottles are changed biweekly. The mice are weighed on Days 0, 3 and 6 then biweekly when blood films are taken. Plasmodium yoelii (17×) is used to infect mice that will be used to infect the mosquitoes. Mice are given a single dose of test compound 4 hr before being inoculated intraperitoneally with 2.5×10^5 sporozoites of Plasmodium yoelii on Day 0. […]

[2] = system: Plasmodium falciparum RCS (Isolates from Brazil); assay: In vitro antimalarial study, [3H]hypoxanthine uptake, RCS clone; format: cell-based; settings: P. falciparum RCS clone
Experimental: as §1

[3] = system: Plasmodium berghei (KBG-173 strain); format: in vivo; settings: for # Mice Alive Day 30/Total / # Mice Dead/Day Died: oral
Experimental: as §1

[4] = Death rates after single intragastric treatment in rats; format: in vivo
[5] = Toxicity in P. cynomolgi-infected Rhesus monkeys; settings: 12 mg/kg/day for 7 consecutive days

| Structure (SMILES) | IC50 W-2 ([1]; P. falciparum W-2 clone) [ng/mL] | IC50 RCS [2] [ng/mL] | # Mice Alive Day 30/Total ([3]; 1.25 mg/kg/day) | # Mice Alive Day 30/Total ([3]; 80-2.5 mg/kg/day) | # Mice Dead/Day Died ([3]; 80-2.5 mg/kg/day) | Deaths ([4]; rats n=4, single intragastric 50 mg/kg in 1% CMC suspension) | Deaths ([4]; rats n=4, single intragastric 100 mg/kg in 1% CMC suspension) | Deaths ([4]; rats n=4, single intragastric 200 mg/kg in 1% CMC suspension) | Deaths ([4]; rats n=4, single intragastric 400 mg/kg in 1% CMC suspension) | Deaths ([4]; rats n=4, single intragastric 800 mg/kg in 1% CMC suspension) | Day of Death: number of deaths ([4]; rats, 800 mg/kg, first cell after Deaths (day uncertain)) | signs of toxicity [5] | IC50 ([1]; Plasmodium falciparum, read-out: IC50 W-2) [ng/mL] | IC50 ([2]; Plasmodium falciparum) [ng/mL] | drug-related deaths in mice ([3]; in vivo) | # Mice Alive Day 30/Total ([3]; 220-0.625 mg/kg/day) | # Mice Dead/Day Died ([3]; 220-0.625 mg/kg/day) | therapeutic index ([4]; rats) | drug-related deaths in rats ([4]; up to 800 mg by a single oral dose) |
| --- | --- | --- | --- | --- | --- | --- | --- | --- | --- | --- | --- | --- | --- | --- | --- | --- | --- | --- | --- |
| CCOC(=O)Nc1nc(NC(=O)OCC)c2c(ccc3c2ccn3Cc2ccccc2C(F)(F)F)n1 [Compound 2b] | 127.80 (≈ 255 nM) | >250 | 3/5 | 5/5 | None | 0/4 | 0/4 | 0/4 | 0/4 | 1/4 | 1 | neither 2b nor 3e exhibited any sign of toxicity |  |  |  |  |  |  |  |
| CC(=O)N(C(C)=O)c1nc(N(C(C)=O)C(C)=O)c2c(ccc3c2ccn3Cc2ccccc2C(F)(F)F)n1 [Compound 3e, 1,3-Bis(diacetylamino)-7-(2-trifluoromethyl)benzyl-7H-pyrrolo[3,2-f]quinazoline] |  |  |  |  |  |  |  |  |  |  |  | neither 2b nor 3e exhibited any sign of toxicity | 0.0752 (≈ 0.143 nM) | 0.0236 (≈ 0.0449 nM) | no drug-related deaths | 5/5 | None | > 160 | no drug-related deaths |
